{"source": "ChEMBL document CHEMBL1151072", "about": "“Benzoxepin and benzothiepin derivatives as potent, orally active inhibitors of 5-lipoxygenase” (Bioorg Med Chem Lett, 1994)", "key": {"[1]": {"system": "Canis familiaris", "assay": "Inhibitory activity against LTB4 production upon intravenous administration at a dose of 1.0 mg/Kg (0.25-0.5 hour) in dog ex vivo model", "assay_type": "functional", "conditions": "Canis lupus familiaris"}, "[2]": {"system": "Canis familiaris", "assay": "Duration of action on LTB4 production upon intravenous administration at a dose of 1.0 mg/Kg in dog ex vivo model", "assay_type": "functional, Canis lupus familiaris"}, "[3]": {"system": "Canis familiaris", "assay": "Inhibitory activity against LTB4 production upon oral administration at a dose of 1.0 mg/Kg (1 hour) in dog ex vivo model", "assay_type": "functional", "conditions": "Canis lupus familiaris"}, "[4]": {"system": "Canis familiaris", "assay": "Duration of action on LTB4 production upon oral administration at a dose of 1.0 mg/Kg in dog ex vivo model", "assay_type": "functional, Canis lupus familiaris"}, "[5]": {"system": "Canis familiaris", "assay": "Inhibitory activity against LTB4 production upon oral administration at a dose of 1.0 mg/Kg (0.5 hours) in dog ex vivo model", "assay_type": "functional", "conditions": "Canis lupus familiaris"}, "[6]": {"system": "Canis familiaris", "assay": "Inhibitory activity against LTB4 production upon intravenous administration at a dose of 1.0 mg/Kg (3 hours) in dog ex vivo model", "assay_type": "functional", "conditions": "Canis lupus familiaris"}, "[7]": {"system": "Canis familiaris", "assay": "Inhibitory activity against LTB4 production upon oral administration at a dose of 1.0 mg/Kg (0.25-6.0 hour) in dog ex vivo model", "assay_type": "functional", "conditions": "Canis lupus familiaris"}, "[8]": {"system": "Canis familiaris", "assay": "Inhibitory activity against LTB4 production upon intravenous administration at a dose of 1.0 mg/Kg (0.08-1 hour) in dog ex vivo model", "assay_type": "functional", "conditions": "Canis lupus familiaris"}, "[9]": {"system": "Canis familiaris", "assay": "Inhibitory activity against LTB4 production upon intravenous administration at a dose of 1.0 mg/Kg (0.08-0.5 hour) in dog ex vivo model", "assay_type": "functional", "conditions": "Canis lupus familiaris"}, "[10]": {"system": "Canis familiaris", "assay": "Inhibitory activity against LTB4 production upon oral administration at a dose of 1.0 mg/Kg (0.5-1 hour) in dog ex vivo model", "assay_type": "functional", "conditions": "Canis lupus familiaris"}, "[11]": {"system": "Canis familiaris", "assay": "Inhibitory activity against LTB4 production upon intravenous administration at a dose of 1.0 mg/Kg (0.08-6.0 hour) in dog ex vivo model", "assay_type": "functional", "conditions": "Canis lupus familiaris"}, "[12]": {"system": "Canis familiaris", "assay": "Inhibitory activity against LTB4 production upon oral administration at a dose of 1.0 mg/Kg (0.08-6.0 hour) in dog ex vivo model", "assay_type": "functional", "conditions": "Canis lupus familiaris"}, "[13]": {"system": "Canis familiaris", "assay": "Inhibitory activity against LTB4 production upon intravenous administration at a dose of 1.0 mg/Kg (0.08 hours) in dog ex vivo model", "assay_type": "functional", "conditions": "Canis lupus familiaris"}}, "data": [{"smiles": "NC(=O)N(O)CC1=Cc2cc(Oc3ccc(F)cc3)ccc2OCC1", "values": [{"measurement": "inhibition in vivo at 1 mg/kg", "setting": "[1]", "value": "> 95", "unit": "%"}, {"measurement": "Duration of action", "setting": "[2]", "value": ">24"}, {"measurement": "inhibition in vivo at 1 mg/kg", "setting": "[3]", "value": "> 95", "unit": "%"}, {"measurement": "Duration of action", "setting": "[4]", "value": 10}]}, {"smiles": "NC(=O)N(O)CC1=Cc2cc(Oc3ccccc3)ccc2OCC1", "values": [{"measurement": "inhibition in vivo at 1 mg/kg", "setting": "[5]", "value": 94, "unit": "%"}, {"measurement": "Duration of action", "setting": "[2]", "value": 19.4}, {"measurement": "inhibition in vivo at 1 mg/kg", "setting": "[6]", "value": 80, "unit": "%"}, {"measurement": "Duration of action", "setting": "[4]", "value": 9.1}]}, {"smiles": "CNC(=O)N(O)CC1=Cc2cc(Oc3ccc(F)cc3)ccc2OCC1", "values": [{"measurement": "Duration of action", "setting": "[2]", "value": 13}, {"measurement": "inhibition in vivo at 1 mg/kg", "setting": "[7]", "value": "> 95", "unit": "%"}, {"measurement": "Duration of action", "setting": "[4]", "value": 13}, {"measurement": "inhibition in vivo at 1 mg/kg", "setting": "[8]", "value": "> 95", "unit": "%"}]}, {"smiles": "CC(c1cc2ccccc2s1)N(O)C(N)=O", "note": "(stereo unspecified) [ZILEUTON]", "values": [{"measurement": "inhibition in vivo at 1 mg/kg", "setting": "[9]", "value": "> 90", "unit": "%"}, {"measurement": "inhibition in vivo at 1 mg/kg", "setting": "[10]", "value": "> 90", "unit": "%"}]}, {"smiles": "NC(=O)N(O)CC1=Cc2cc(Oc3ccccc3)ccc2OC1", "values": [{"measurement": "inhibition in vivo at 1 mg/kg", "setting": "[11]", "value": "> 95", "unit": "%"}, {"measurement": "inhibition in vivo at 1 mg/kg", "setting": "[12]", "value": "> 95", "unit": "%"}]}, {"smiles": "NC(=O)N(O)CC1=Cc2cc(Oc3ccccc3)ccc2SCC1", "values": [{"measurement": "Duration of action", "setting": "[2]", "value": 2.8}, {"measurement": "inhibition in vivo at 1 mg/kg", "setting": "[8]", "value": "> 95", "unit": "%"}]}, {"smiles": "NC(=O)N(O)CC1=Cc2ccc(Oc3ccccc3)cc2OCC1", "values": [{"measurement": "inhibition in vivo at 1 mg/kg", "setting": "[13]", "value": "> 95", "unit": "%"}, {"measurement": "Duration of action", "setting": "[2]", "value": 1.1}, {"measurement": "inhibition in vivo at 1 mg/kg", "setting": "[3]", "value": 28, "unit": "%"}]}]}
